13 compounds from US20060063784A1, “Method of using substituted pyrazolo [1,5-a] pyrimidines” (priority 2004, published 2006) can be followed below.

The test system of experiment [1] is 80S14 (p21-deficient) cells. The experiment can be described thus: Cytotoxicity assay using isogenic cell lines: IC50 in 80S14 (p21-deficient) cells, SRB. In kind it is cell-based, human. To be noted: Homo sapiens, 120 h; 80S14 (p21-deficient) cells, 5 days, SRB; class symbols; read-out: IC50 for 80S14. Summed up: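 80S14 (p21-deficient) cells seeded at 12,000 cells/well overnight, then exposed 5 days at 37 °C to serial dilutions (5 pM–50 μM or 170 pg/ml–10 μg/ml). TCA-fixed, sulforhodamine B-stained, absorbance at 560 nm; IC50 taken from cytotoxicity curves versus untreated controls.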

Another experiment concerns LoVo Colon cell line. Nature of the experiment: Cytotoxicity assay using LoVo colon cell line, SRB. In kind it is cell-based. The conditions noted are these: Homo sapiens, 96 h; Cellular activity in LoVo cell; 4 days incubation, SRB; read-out: Inhibition of LoVo. Summed up:
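LoVo cells (4000/well, RPMI 1640 with 10% FBS, 37 °C, 7% CO2) seeded overnight, then exposed 4 days to serial dilutions spanning 5 pM-20 μM or 170 pg/ml-10 μg/ml. Survival by SRB staining; IC50 from curves relative to untreated controls.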

`O=C(c1cccs1)c1cnn2c(-c3cccc(NCc4ccco4)c3)ccnc12` [Example 367, (7-{3-[(2-Furylmethyl)amino]phenyl}pyrazolo[1,5-a]pyrimidin-3-yl)(thien-2-yl)methanone]: the IC50 in experiment [1] is 1 to 10 µM; in the experiment on LoVo Colon cell line it was 0.1 to 1 µM.
Consider `O=C(c1cccs1)c1cnn2c(-c3cccc(NCc4ccccc4Cl)c3)ccnc12` [Example 368, (7-{3-[(2-Chlorobenzyl)amino]phenyl}pyrazolo[1,5-a]pyrimidin-3-yl)(thien-2-yl)methanone], for which the IC50 is 1 to 10 µM in experiment [1] and 0.1 to 1 µM in the experiment with LoVo Colon cell line.
On to `O=C(c1cccs1)c1cnn2c(-c3cccc(NCc4ccoc4)c3)ccnc12` [Example 369, (7-{3-[(3-Furylmethyl)amino]phenyl}pyrazolo[1,5-a]pyrimidin-3-yl)(thien-2-yl)methanone], for which the results for the IC50 (in experiment [1]; in the experiment on LoVo Colon cell line) were 1 to 10 µM and 0.1 to 1 µM, respectively.
Taken in the same sequence, the figures for `C/C=C/CNc1cccc(-c2ccnc3c(C(=O)c4cccs4)cnn23)c1` [Example 370, (7-{3-[(2E)-But-2-enylamino]phenyl}pyrazolo[1,5-a]pyrimidin-3-yl)(thien-2-yl)methanone] were < 1 µM and < 0.1 µM.
For `CC(C)=CCNc1cccc(-c2ccnc3c(C(=O)c4cccs4)cnn23)c1` [Example 371, (7-{3-[(3-Methylbut-2-enyl)amino]phenyl}pyrazolo[1,5-a]pyrimidin-3-yl)(thien-2-yl)methanone], in that order: < 1 µM and < 0.1 µM.
With `CC(C)(C)CCNc1cccc(-c2ccnc3c(C(=O)c4cccs4)cnn23)c1` [Example 372, (7-{3-[(3,3-Dimethylbutyl)amino]phenyl}pyrazolo[1,5-a]pyrimidin-3-yl)(thien-2-yl)methanone], the IC50 was < 1 µM in experiment [1] and < 0.1 µM in the experiment on LoVo Colon cell line.
On to `O=C(c1cccs1)c1cnn2c(-c3ccc(Cl)nc3)ccnc12` [Example 373, [7-(6-Chloropyridin-3-yl)pyrazolo[1,5-a]pyrimidin-3-yl](thien-2-yl)methanone], for which the IC50 lay in the range of 10 to 50 µM in experiment [1] and 1 to 20 µM in the experiment on LoVo Colon cell line.
With `O=C(Nc1cc(-c2ccnc3c(C(=O)c4cccs4)cnn23)ccc1F)c1c(F)cccc1F` [Example 374, 2,6-Difluoro-N-{2-fluoro-5-[3-(thien-2-ylcarbonyl)pyrazolo[1,5-a]pyrimidin-7-yl]phenyl}benzamide], the IC50 in experiment [1] was < 1 µM; with LoVo Colon cell line, < 0.1 µM.
With `O=C(Nc1cc(-c2ccnc3c(C(=O)c4cccs4)cnn23)ccc1F)c1ccccc1F` [Example 375, 2-fluoro-N-{2-fluoro-5-[3-(thien-2-ylcarbonyl)pyrazolo[1,5-a]pyrimidin-7-yl]phenyl}benzamide], the IC50 in experiment [1] is < 1 µM; in the experiment with LoVo Colon cell line it was < 0.1 µM.
`O=C(Nc1cc(-c2ccnc3c(C(=O)c4cccs4)cnn23)ccc1F)c1ccccc1Cl` [Example 376, 2-Chloro-N-{2-fluoro-5-[3-(thien-2-ylcarbonyl)pyrazolo[1,5-a]pyrimidin-7-yl]phenyl}benzamide]: the figures for the IC50 (in experiment [1]; with LoVo Colon cell line) were < 1 µM and < 0.1 µM, respectively.
Taken in the same sequence, the figures for `Cc1ccccc1CNc1cccc(-c2ccnc3c(C(=O)c4cccs4)cnn23)c1` [Example 377, (7-{3-[(2-Methylbenzyl)amino]phenyl}pyrazolo[1,5-a]pyrimidin-3-yl)(thien-2-yl)methanone] were 1 to 10 µM and 0.1 to 1 µM.
For `CC(CNc1cccc(-c2ccnc3c(C(=O)c4cccs4)cnn23)c1)c1ccccc1` (centres unmarked) [Example 378, (7-{3-[(2-Phenylpropyl)amino]phenyl}pyrazolo[1,5-a]pyrimidin-3-yl)(thien-2-yl)methanone], in that order: 1 to 10 µM and 1 to 20 µM.
Taken in the same sequence, the figures for `O=C(c1cccs1)c1cnn2c(-c3cccc(NCC4CCCCC4)c3)ccnc12` [Example 379, (7-{3-[(Cyclohexylmethyl)amino]phenyl)pyrazolo[1,5-a]pyrimidin-3-yl)(thien-2-yl)methanone] were < 1 µM and < 0.1 µM.
